Key:
Experiment in all cases: relative viability (nuclei count vs DMSO), 5 days (fraction); higher = more cells survive
[1] = compound: CC1=C(CC(=O)O)c2cc(F)ccc2/C1=C\c1ccc([S+](C)[O-])cc1 [Sulindac] + CS(=O)(=O)CCNCc1ccc(-c2ccc3ncnc(Nc4ccc(OCc5cccc(F)c5)c(Cl)c4)c3c2)o1 [Lapatinib] (partner 2 µM)
How it was run: (§1)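 Relative viability is defined as nuclei in treated wells over nuclei in vehicle wells. Duplicate plates were run and medians reported. Lung cancer cell lines in 1536-well plates were dosed by pin tool one day after seeding, with one drug or with a fixed anchor-drug dose plus five library-drug doses (not always all listed) in √10 steps, and nuclei were counted after 5 days.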

[2] = compound: CN[C@@H]1C[C@H]2O[C@@](C)([C@@H]1OC)n1c3ccccc3c3c4c(c5c6ccccc6n2c5c31)C(=O)NC4 [Staurosporine] + CC1(C)CCC(c2ccc(Cl)cc2)=C(CN2CCN(c3ccc(C(=O)NS(=O)(=O)c4ccc(N[C@H](CCN5CCOCC5)CSc5ccccc5)c(S(=O)(=O)C(F)(F)F)c4)cc3)CC2)C1 [Navitoclax] (partner 0.5 µM)
How it was run: as §1

[3] = compound: O=c1[nH]cc(F)c(=O)[nH]1 [5-Fluorouracil] + COc1cccc2cc(-c3nc([C@H]4CC[C@H](C(=O)O)CC4)n4ncnc(N)c34)[nH]c12 [OSI-027] (partner 0.5 µM)
How it was run: as §1

[4] = compound: CC1=C(CC(=O)O)c2cc(F)ccc2/C1=C\c1ccc([S+](C)[O-])cc1 [Sulindac] + CCNC(=O)c1noc(-c2cc(C(C)C)c(O)cc2O)c1-c1ccc(CN2CCOCC2)cc1 [Luminespib] (partner 0.01 µM)
How it was run: as §1

Cell Line | relative viability ([1]; first compound 0.08 µM) | relative viability ([1]; first compound 0.253 µM) | relative viability ([1]; first compound 0.8 µM) | relative viability ([1]; first compound 2.53 µM) | relative viability ([1]; first compound 8 µM) | relative viability ([2]; first compound 0.005 µM) | relative viability ([2]; first compound 0.01581 µM) | relative viability ([2]; first compound 0.05 µM) | relative viability ([2]; first compound 0.1581 µM) | relative viability ([2]; first compound 0.5 µM) | relative viability ([3]; first compound 0.02 µM) | relative viability ([3]; first compound 0.2 µM) | relative viability ([3]; first compound 0.6325 µM) | relative viability ([3]; first compound 2 µM) | relative viability ([4]; first compound 0.08 µM) | relative viability ([4]; first compound 0.253 µM) | relative viability ([4]; first compound 0.8 µM) | relative viability ([4]; first compound 2.53 µM) | relative viability ([4]; first compound 8 µM)
PC-14 | 0.349 | 0.379 | 0.315 | 0.276 | 0.311 | 0.901 | 0.562 | 0.887 | 0.0852 | 0.053 | 0.876 | 0.976 | 0.747 | 0.296 | 0.164 | 0.152 | 0.15 | 0.152 | 0.127
HARA | 0.989 | 0.835 |  | 0.858 | 0.893 |  | 0.538 | 0.37 | 0.157 | 0.161 | 0.475 | 0.737 | 0.559 | 0.308 | 0.731 | 1 | 0.77 | 0.671 | 0.963
NCI-H23 | 1.26 | 1.17 | 0.996 | 0.98 | 1.3 | 0.764 | 0.412 | 0.257 | 0.2 | 0.12 | 0.618 | 0.56 | 0.388 | 0.252 | 0.174 |  |  | 0.234 | 0.243
NCI-H1648 |  |  |  |  |  |  |  |  |  |  | 0.246 | 0.269 | 0.264 | 0.245 |  |  |  |  | 
NCI-H522 |  |  |  |  |  |  |  |  |  |  | 0.714 | 0.714 | 0.722 | 0.705 | 1.15 | 1.01 | 1.09 | 1.2 | 1.22
IA-LM | 0.724 | 0.8 | 0.68 | 0.782 | 0.798 | 0.242 |  | 0.257 | 0.0433 | 0.0163 |  |  |  |  |  |  |  |  | 
NCI-H661 | 0.512 | 0.413 | 0.474 | 0.564 | 0.557 |  |  |  |  |  | 0.674 |  | 0.661 | 0.691 | 0.969 | 0.97 | 0.852 | 0.9 | 0.957
NCI-H358 | 0.457 | 0.439 | 0.474 | 0.44 | 0.564 |  |  |  |  |  | 0.819 | 0.888 | 0.508 | 0.289 | 0.202 | 0.384 |  | 0.46 | 0.359
NCI-H650 | 1.08 | 0.977 | 0.598 | 0.767 | 1.07 |  |  |  |  |  | 0.493 | 0.357 | 0.362 | 0.267 | 0.796 | 0.87 | 0.659 | 0.644 | 0.935
NCI-H441 |  |  |  |  |  | 0.521 | 0.333 | 0.325 | 0.16 | 0.17 | 0.779 | 0.523 | 0.322 | 0.326 | 0.345 | 0.326 | 0.352 | 0.239 | 0.289
NCI-H1703 | 1.37 | 1.37 | 0.97 | 1.25 | 1.08 | 0.293 | 0.207 | 0.143 | 0.132 | 0.0869 |  |  |  |  |  |  |  |  | 
EBC-1 | 0.213 | 0.211 |  | 0.237 | 0.218 | 0.252 | 0.129 | 0.118 | 0.11 | 0.094 |  |  |  |  |  |  |  |  | 
ABC-1 |  | 1.23 | 1.13 | 1.28 | 1.24 |  |  |  |  |  | 0.453 | 0.518 | 0.53 | 0.261 | 0.397 | 0.415 | 0.687 |  | 0.71
HCC-366 | 1.19 | 1.13 | 0.765 | 1.06 | 1.49 | 1.03 |  | 0.5 | 0.0585 | 0.0142 | 1.18 | 0.868 | 0.439 | 0.144 |  |  |  |  | 
NCI-H1563 | 0.992 | 0.901 | 0.884 | 0.879 | 0.933 |  |  |  |  |  | 0.679 | 0.791 | 0.7 | 0.696 | 0.449 | 0.553 | 0.535 | 0.551 | 0.498
SW 900 |  |  |  |  |  |  |  |  |  |  | 0.505 | 0.501 | 0.44 | 0.423 |  | 0.176 |  | 0.156 | 0.173
NCI-H1299 | 1.06 | 0.927 | 0.96 | 0.942 | 1.06 | 1.06 | 0.739 | 0.459 | 0.239 | 0.199 |  |  |  |  |  |  |  |  | 
A549 | 1.12 | 0.975 | 0.995 | 1.04 | 1.22 | 0.616 | 0.385 | 0.123 | 0.0294 | 0.0297 |  |  |  |  |  |  |  |  | 
NCI-H1623 |  |  |  |  |  |  |  |  |  |  | 0.384 | 0.339 | 0.339 | 0.323 | 0.424 | 0.459 | 0.51 | 0.462 | 0.507
HCC-78 | 0.868 | 0.623 | 0.28 | 0.569 | 0.944 | 0.711 | 0.563 | 0.553 | 0.358 | 0.206 | 0.618 | 0.369 | 0.335 | 0.306 |  |  |  |  | 
NCI-H2342 |  |  |  |  |  |  |  |  |  |  | 0.698 | 0.731 | 0.735 | 0.638 | 0.636 | 0.767 | 0.7 | 0.761 | 0.821
Calu-6 | 1.29 | 1.04 | 1.09 | 1.25 | 1.3 | 0.656 | 0.321 | 0.233 | 0.0847 | 0.0708 |  |  |  |  |  |  |  |  | 
ChaGo-K-1 |  |  |  |  |  | 0.926 |  | 0.79 | 0.29 | 0.27 | 0.608 | 0.536 | 0.401 | 0.425 | 0.526 | 0.584 | 0.637 | 0.587 | 0.405
LCLC-103H |  |  |  |  |  |  |  |  |  |  | 0.503 | 0.59 | 0.379 | 0.311 | 1.21 | 1.09 | 0.751 | 0.886 | 0.996

Reference: the supplement of paper PMC10307832
